Assay results: patent publication US12109184B2, “Personalized methods of treating cancer” (CANCER RESEARCH TECHNOLOGY LIMITED, priority 2020, dated 2024)
“Also recorded” adds a separate entry of the source.

Columns and labels:
[1] = tested on: HCT116, SW480, MDA-MB-231, and MIAPaCa-2 cells; details: exogenous GSH 5 mM
Procedure: HCT116, SW480, MDA-MB-468, MDA-MB-231, AsPC-1, BxPC-3, CFPAC-1, MIAPaCa-2, PANC-1, Panc10.05, SW1990, U-251, LN-18, LN-229, T98G, U-343, A-172 cells were used. Cell lines were authenticated using Short Tandem Repeat (STR) profiling and tested for mycoplasma. Colorectal and breast cancer cell lines were grown in Dulbecco's Modified Eagle Medium (DMEM), pancreatic ductal adenocarcinoma (PDAC) cell lines were grown in Roswell Park Memorial institute (RPMI) 1640. All cell lines were supplemented with penicillin-streptomycin, amphotericin, 2 mM L-glutamine, and 10% fetal bovine serum (FBS). Cells were kept at 37° C. in 5% CO2 in a humidified cell culture incubator. A formulated medium lacking cysteine, cystine, methionine, and serine was used as a base for creating experimental media. The base medium formulation contained 0.2 mM L-histidine, 0.4 mM L-isoleucine, 0.4 mM L-leucine, 0.4 mM L-lysine, 0.2 mM L-phenylalanine, 0.4 mM L-threonine, 0.08 mM L-tryptophan, 0.4 mM L-valine, 0.2 mM L-arginine, 2 mM L-glutamine, 0.2 mM L-tyrosine, 0.4 mM L-alanine, 0.3 mM L-proline, 0.15 mM L-glutamic acid, 0.1 mM L-aspartic acid, 0.2 mM L-asparagine, and 0.4 mM glycine. […]
Cells were seeded at 6×10^4 cells per well into 24-well plates (triplicate wells per condition) in the relevant complete medium and adhered for a full 24-hour period. […] DAPI-stained cell nuclei were detected via microscopy. […]

MDA-MB-231 cells = assay: Steady state metabolite measurements by LC-MS; type: cell-based
Procedure: Metabolomics experiments were performed as follows. Cells were seeded into 6-well plates (5×10^5-1.5×10^6 cells/mL, depending on time-course, triplicate wells per condition) in complete medium and adhered overnight. Cells were washed with PBS, and the relevant experimental media were added for the stated times. Duplicate wells were used for cell counting. Cell counts were used to normalize the volume of lysis solvent prior to metabolite extractions (2×10^6 cells/mL). Cells were washed quickly in PBS, then ice-cold lysis solvent (methanol 50%, acetonitrile 30%, water 20%) was added, and cells were scraped on ice. Lysates were transferred to 1.5 mL tubes on ice, vortexed, then spun by centrifugation at 15,000 rpm at 4° C. for 10 minutes. Supernatants were collected and stored at -80° C. for LC-MS analysis. Prepared samples were analyzed on an LC-MS platform consisting of an […] system and an ExactiveTM mass spectrometer. A Sequant® ZIC®-HILIC column (4.6 mm×150 mm, 3.5 μm) was used to separate the metabolites with the mobile phase using A=0.1% (v/v) formic acid in water and B=0.1% (v/v) formic acid in acetonitrile. A gradient program starting at 20% of A and linearly increasing to 80% at 30 min was used followed by washing (92% of A for 5 mins) and re-equilibration (20% of A for 10 min) steps. The total run time of the method was 45 min. The LC stream was desolvated and ionized in the HESI probe. The ExactiveTM mass spectrometer was operated in full scan mode over a mass range of 70-1,200 m/z at a resolution of 50,000 with polarity switching. The LC-MS raw data was converted into mzML files by using ProteoWizard and imported to MZMine 2.10 for peak extraction and sample alignment. An in-house database including all possible ^13C and ^15N isotopic m/z values of the relevant metabolites was used for the assignment of LCMS signals. Finally the peak areas were used for comparative quantification.

[2] = tested on: breast, colorectal and pancreatic cancer cell lines; assay: Cell counting in complete or cysteine-free medium, cell lines not given; type: cell-based; details: supplementation during cysteine starvation
Procedure: The base medium formulation contained 0.2 mM L-histidine, 0.4 mM L-isoleucine, 0.4 mM L-leucine, 0.4 mM L-lysine, 0.2 mM L-phenylalanine, 0.4 mM L-threonine, 0.08 mM L-tryptophan, 0.4 mM L-valine, 0.2 mM L-arginine, 2 mM L-glutamine, 0.2 mM L-tyrosine, 0.4 mM L-alanine, 0.3 mM L-proline, 0.15 mM L-glutamic acid, 0.1 mM L-aspartic acid, 0.2 mM L-asparagine, and 0.4 mM glycine.
DAPI-stained cell nuclei were detected via microscopy.
AMD1 inhibitor sardomozide/SAM486A, GPX4 inhibitor RSL3, and CSE inhibitor beta-cyano-L-alanine were used.
For experiments using spermine oxidase (SMOX) and polyamine oxidase (PAOX) inhibitors or MTOB, cells were pre-treated with stated concentrations for 16 hours in complete medium. After pre-treatment, cells were washed in PBS, and treatment was continued in complete or cysteine-free medium for stated times. After treatment was finished, cells were fixed and stained as described above. For experiments using MTA, polyamines, GPX4 and CSE inhibitors, treatment started at the same time as cysteine starvation. For experiments involving hypoxic conditions, cells were seeded in normoxic conditions and allowed to adhere for 24 hours before control and cysteine starvation medium was added and cells were immediately transferred either to a humidified cell culture incubator set to 37° C. in 20% O2 (normoxia), or a hypoxia chamber set to 37° C. in 1% O2 (hypoxia) for the stated times. Cells were fixed immediately and stained as described above.

[3] = tested on: SW480 and MDA-MB-231 cells; assay: Cell counting, rescue by cysteine precursors during cysteine starvation; type: cell-based
Procedure: HCT116, SW480, MDA-MB-468, MDA-MB-231, AsPC-1, BxPC-3, CFPAC-1, MIAPaCa-2, PANC-1, Panc10.05, SW1990, U-251, LN-18, LN-229, T98G, U-343, A-172 cells were used. Cell lines were authenticated using Short Tandem Repeat (STR) profiling and tested for mycoplasma. Colorectal and breast cancer cell lines were grown in Dulbecco's Modified Eagle Medium (DMEM), pancreatic ductal adenocarcinoma (PDAC) cell lines were grown in Roswell Park Memorial institute (RPMI) 1640. All cell lines were supplemented with penicillin-streptomycin, amphotericin, 2 mM L-glutamine, and 10% fetal bovine serum (FBS). Cells were kept at 37° C. in 5% CO2 in a humidified cell culture incubator. A formulated medium lacking cysteine, cystine, methionine, and serine was used as a base for creating experimental media. The base medium formulation contained 0.2 mM L-histidine, 0.4 mM L-isoleucine, 0.4 mM L-leucine, 0.4 mM L-lysine, 0.2 mM L-phenylalanine, 0.4 mM L-threonine, 0.08 mM L-tryptophan, 0.4 mM L-valine, 0.2 mM L-arginine, 2 mM L-glutamine, 0.2 mM L-tyrosine, 0.4 mM L-alanine, 0.3 mM L-proline, 0.15 mM L-glutamic acid, 0.1 mM L-aspartic acid, 0.2 mM L-asparagine, and 0.4 mM glycine. The base medium was supplemented with 10% dialyzed FBS, penicillin-streptomycin, and amphotericin. To ensure an adequate supply of vitamin B6 (a crucial co-factor for de novo cysteine synthesis), base medium was supplemented with additional 20 μM vitamin B6. The control experimental medium was the base medium supplemented with 0.4 mM L-cysteine, 0.2 mM L-methionine, and 0.4 mM L-serine. The cysteine starvation (−Cys) experimental medium was base medium supplemented with 0.2 mM L-methionine and 0.4 mM L-serine.
Cells were seeded at 6×10^4 cells per well into 24-well plates (triplicate wells per condition) in the relevant complete medium and adhered for a full 24-hour period. A ‘time-0’ plate was included to record the starting cell number to calculate relative cell numbers. Cells were washed once with phosphate-buffered saline (PBS) before receiving experimental medium containing or lacking the specified amino acids, metabolites, or drugs. At the stated time-points the medium was removed, cells were fixed in a 4% formalin-PBS solution. Cells were then washed and stored in PBS before staining with 4′,6-diamidino-2-phenylindole (DAPI)-Triton™ X100-PBS solution for 1 hour, followed by storage in PBS at 4° C. until further analysis. DAPI-stained cell nuclei were detected via microscopy.
Homocysteine, cystathionine, glutathione, putrescine, spermine, spermidine, GPX4 inhibitor ML210, SMOX inhibitor MDL 72527, PAOX inhibitor diminazene aceturate, ferrostatin-1 and erastin were used. AMD1 inhibitor sardomozide/SAM486A, GPX4 inhibitor RSL3, and CSE inhibitor beta-cyano-L-alanine were used. […]

[4] = tested on: HCT116, SW480, MDA-MB-231 and MDA-MB-468 cells; assay: Western blot of transsulfuration pathway enzyme expression; type: cell-based; details: medium lacking cysteine with 0.8 mM homocysteine, 24 hr
From the text: Protein was extracted from whole cells by lysis in RIPA buffer supplemented with a protease and […] cocktail. Lysates were cleared using centrifugation, resolved on 4-12% bis-tris pre-cast gels, and transferred to nitrocellulose membranes. Primary antibodies used were MTAP, AMD1, ODC1, GPX4, AHCY, CBS, CSE, and actin as a loading control on the same blots. Secondary antibodies used were IRDye800CW anti-mouse, IRDye680RD anti-mouse, IRDye800CW anti-rabbit, and IRDye680RD anti-rabbit. Protein bands were detected and quantified using an infrared scanner and imaging software.

[5] = medium lacking cysteine with 5 mM glutathione
[6] = medium lacking cysteine, supplement 0.2 mM

Row | SMILES | cell death and proliferation during cysteine starvation [1] | intracellular GSH levels (MDA-MB-231 cells; [5]) | intracellular cysteine and γ-glutamylcysteine levels (MDA-MB-231 cells; [5]) | rescue from cysteine starvation-induced cell death (summary in discussion) [2] | rescue of survival/proliferation during cysteine starvation ([3]; supplement at 0.2 mM) | restoration of proliferation during cysteine starvation ([3]; supplement at 0.8 mM) | intracellular cysteine levels (MDA-MB-231 cells; [6]) | intracellular homocysteine and cystathionine levels (MDA-MB-231 cells; [6]) | intracellular γ-glutamylcysteine and GSH levels (MDA-MB-231 cells; [6]) | intracellular cysteine levels (MDA-MB-231 cells; medium lacking cysteine, supplement 0.8 mM, 8 h) | transsulfuration pathway enzyme expression beyond starvation alone [4]
1 | N[C@@H](CCC(=O)N[C@@H](CS)C(=O)NCC(=O)O)C(=O)O [GSH, glutathione] | prevented cell death and restored proliferation | fully restored | partial rescue | – | – | – | – | – | – | – | –
2 | N[C@@H](CCS)C(=O)O [homocysteine] | – | – | – | rescued from starvation-induced cell death; also recorded: able to rescue cells from cysteine starvation | substantial rescue | further able to restore proliferation; also recorded: restored proliferation and increased cell survival | moderate increases | significantly increased | more marked increases | significant increase | little impact
